The results in this text go back to PubChem BioAssay (NCI).

As a reminder, the GI50 is the concentration giving 50% growth inhibition. The TGI is the concentration giving total growth inhibition. Low values mean greater sensitivity of the cells, high ones lower sensitivity of the cells.

Test systems include 786-0 renal; CAKI-1 renal; EKVX NSCLC; HCC-2998 colon; K-562 leukemia; NCI-H460 lung; OVCAR-4 ovarian; SF-295 CNS; SK-MEL-2 melanoma; SK-MEL-5 melanoma.
Holding throughout (test): DTP human tumour cell line panel, 48 h

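How tested: cells in 96-well plates exposed to compound for 48 hours at five concentrations. The concentration for 50% growth inhibition is given as GI50. TGI: total growth inhibition.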

In the case of `S=c1nc2[nH]ncc2c(N/N=C/c2ccccc2)[nH]1`, the GI50 is above 100 µM with 786-0 renal; 31.9 µM with CAKI-1 renal; above 100 µM in the experiment with EKVX NSCLC; above 100 µM in the experiment with HCC-2998 colon; above 100 µM in the experiment with K-562 leukemia; 93.6 µM in the experiment with NCI-H460 lung. Besides, the GI50 in the experiment with OVCAR-4 ovarian is above 100 µM; in the experiment on SF-295 CNS it was above 100 µM; in the experiment with SK-MEL-2 melanoma, above 100 µM; with SK-MEL-5 melanoma, 41.3 µM. Also, the TGI in the experiment with 786-0 renal, in the experiment on CAKI-1 renal, in the experiment with EKVX NSCLC, with HCC-2998 colon, with K-562 leukemia and in the experiment with NCI-H460 lung was above 100 µM in each case. Besides, the TGI with OVCAR-4 ovarian, with SF-295 CNS, in the experiment on SK-MEL-2 melanoma and with SK-MEL-5 melanoma was above 100 µM throughout.

Consider `ClC1CCC2OOC1O2` (stereo not given), for which the TGI with 786-0 renal, in the experiment on CAKI-1 renal, in the experiment with EKVX NSCLC, with HCC-2998 colon, in the experiment with K-562 leukemia and in the experiment with NCI-H460 lung was above 100 µM throughout. Further, the TGI with OVCAR-4 ovarian, in the experiment with SF-295 CNS, with SK-MEL-2 melanoma and with SK-MEL-5 melanoma was above 100 µM in each case.

In the case of `COC1C=CC(C(=O)[N+]2=Cc3[nH]c4ccccc4c3CC2)O1` (stereo not given), the TGI in the experiment on 786-0 renal, in the experiment with CAKI-1 renal, with EKVX NSCLC, in the experiment on HCC-2998 colon, in the experiment with K-562 leukemia and in the experiment with NCI-H460 lung was above 100 µM throughout. The TGI in the experiment on OVCAR-4 ovarian, in the experiment with SF-295 CNS, in the experiment on SK-MEL-2 melanoma and with SK-MEL-5 melanoma was above 100 µM in each case.
